Source: patent publication US11643691B2, “Predictive biomarkers for cancer immunotherapy and methods of using same” (Duke University, priority 2018, dated 2023)
Blank lines part the entries; values can stand above or below the compound they belong to.

How the values were obtained:
[1] = system: CD8+ T cell proliferation; assay: T cell proliferation assay (CellTrace Violet dilution, OT-1 splenocytes with conditioned DCs); format: cell-based, mice; settings: DCs pre-treated, LPS stimulated
Procedure: T Cell Proliferation Assay: Splenocytes of OT-1 mice (H-2b) were isolated and stained with CellTrace Violet (ThermoFisher). Preconditioned DCs were loaded with ovalbumin peptide SIINFEKL, and co-cultured at a DC:splenocyte ratio of 40,000:120,000 cells for 72 hrs. CD8+ T cell proliferation was measured by the dilution of Cell Trace Violet dye by flow cytometry.

CD4+FoxP3+ Treg cells = assay: In vitro Treg cell assay (conditioned DCs with naive CD4+ T cells); format: cell-based, mice; settings: for DC-mediated Treg cell differentiation in vitro: treated DCs co-cultured with naive CD4+ T cells
Procedure: (§1) Dendritic Cell Conditioning: DCs were treated with Wnt3a (100 ng/mL), Wnt5a (200 ng/mL), LPS (1 μg/mL), 1-MT (1 mM), 2DG (1 mM), or ETO (100 μM), 2-DG(2-deoxy-d-glucose, 1 mM), Oligomycin (1 μM), succinylacetone (250 μM), or vehicle control either for 24 or 48 hrs prior to their use in both in vitro and in vivo experiments.
Treg Cell Assays: For in vivo Treg cell assays, DCs (C57, H-2b) were pre-treated for 48 hours and delivered by intradermal injection into the footpad of Foxp3-mRFP mice. Draining inguinal and popliteal lymph nodes were resected 5 days later and analyzed for CD4+Foxp3+ Treg cells. For in vitro Treg cell assays, DCs (Balb/c, H-2d) were pre-treated for either 24 or 48 hrs, and re-plated at a 1:3 DC:T-cell ratio with purified allogeneic naive Foxp3-mRFP(H-2b) CD44loCD62LhiCD4+ Tcells. These co-cultures were incubated for 6 days and quantitated for CD4+FoxP3+ Treg cells by flow cytometry.

DCs [2] = assay: Extracellular acidification rate (ECAR), Seahorse XFe24 flux analysis of DCs; format: cell-based, Murine
Procedure: as §1
(§2) Cellular Energy Metabolism Analysis: DC energy metabolism was measured using the XFe24 extracellular flux analyzer (Seahorse Bioscience), with the glycolysis stress test kit and the mitochondrial stress test kit as previously described (Everts et al., 2014, Zhao and Klimecki, 2015). For experiments involving LPS injection, DCs were plated in XFe24 plates (200,000/well in 500p1) and treated with LPS for 48 hours prior to XF analysis. DCs were washed and analyzed in XF media (RPMI without sodium bicarbonate, 10 mM glucose, 1% FBS, 2 mM L-glutamine). ECAR was analyzed in real-time with or without LPS stimulation. For experiments involving BrafV600EPten−/− cell line-derived conditioned media (CM), collected CM was concentrated and desalted with an Amicon Ultra 30K filter according to manufacturer's recommendations (Milipore). Final concentrate was further washed with XF media 3 times, added to DCs immediately prior to OCR analysis. For standard ECAR analysis, XF media (without glucose) was used to wash cells prior to the assay. A final concentration of 10 mM glucose, 1 μM oligomycin, 50 mM 2-DG(sigma) were injected through XFe24 port A-C. For standard OCR analysis, XF media (with 10 mM glucose) was used to wash cells, a final concentration of 1 μM oligomycin, 1.5 μM FCCP (fluoro-carbonyl cyanide phenylhydrazone), 100 nM rotenone, and 1 μM of antimycin-A (Sigma) were injected through XFe24 port A-C.

[3] = system: syngeneic BRAF^V600EPTEN^−/− melanomas; assay: Syngeneic melanoma study with NLRP3i and anti-PD-1 ab; format: in vivo
Procedure: (A) Treatment of syngeneic BRAF^V600EPTEN^−/− melanomas with IgG isotype control ab (200 μg ip every 3 days), NLRP3i (MCC950 10 μg ip every 3 days), anti-PD-1 ab (200 μg ip every 3 days), or both NLRP3i and anti-PD-1 ab combination therapy (n=8). (B) Gr-MDSC flow cytometry analysis of resected BRAF^V600EPTEN^−/− melanomas following treatment with IgG isotype control ab, NLRP3i, anti-PD-1 ab, or both NLRP3i and anti-PD-1 ab combination therapy (n=4). top, representative flow cytometry dot plot. (C) CD8^+ T cell flow cytometry analysis of resected BRAF^V600EPTEN^−/− melanomas following treatment with IgG isotype control ab, NLRP3i, anti-PD-1 ab, or both NLRP3i and anti-PD-1 ab combination therapy (n=4). All data is mean±SEM. *P<0.05.
As depicted in FIG. 21A, NLRP3 inhibition can be combined with a […] (e.g. PD-1 inhibitor) to augment the anti-tumor effect of the PD-1 inhibitor therapy.

DCs [4] = assay: Oxygen consumption rate (OCR) / OXPHOS, Seahorse XFe24 flux analysis of murine DCs; format: cell-based; settings: DCs pre-treated
Procedure: as §1
as §2, with “A final concentration of 10 mM glucose, 1 μM oligomycin, 50 mM 2-DG(sigma) were injected through XFe24 port A-C. For standard OCR analysis, XF media (with 10 mM glucose) was used to wash cells, a final concentration of 1 μM oligomycin, 1.5 μM FCCP (fluoro-carbonyl cyanide phenylhydrazone), 100 nM rotenone, and 1 μM of antimycin-A (Sigma) were injected through XFe24 port A-C.” left out

DCs [5] = assay: qRT-PCR / qPCR array / immunoblot gene expression in DCs; format: cell-based, Murine
Procedure: Dendritic Cell Conditioning: DCs were treated with Wnt3a (100 ng/mL), Wnt5a (200 ng/mL), LPS (1 μg/mL), 1-MT (1 mM), 2DG (1 mM), or ETO (100 μM), 2-DG(2-deoxy-d-glucose, 1 mM), Oligomycin (1 μM), succinylacetone (250 μM), […]
Antibodies, Immunoprecipitation, and Immunoblot Analysis: Primary antibodies including CPT1A (Cell signaling), PPAR-γ (Santa Cruz Biotechnology), β-catenin, β-actin (Millipore), p-AMPK(T172)/AMPK (Cell signaling), p-AKT(T308)/Akt (Cell Signaling) were used at 1:1000. Secondary antibodies including goat anti-rabbit IgG-HRP (Millipore) and goat anti-mouse IgG-HRP (Millipore) were used at 1:5000. Cells were lysed in Laemmli sample buffer after treatment and subjected to SDS-polyacrylamide gel electrophoresis and immunoblot analysis. For immunoprecipitation, cells were lysed in radio immunoprecipitation assay (RIPA) buffer [10 mM sodium phosphate (pH 8.0), 150 mM NaCl, 1% Triton X-100, 1% sodium deoxycholate, and 0.1% SDS in the presence of 1 mM DTT, 1 mM phenylmethylsulfonylfluoride, and a protease inhibitor cocktail (Sigma)], precleared with protein A beads, and then incubated with 1 μg of antibody against β-catenin or isotype control IgG with protein A-agarose beads on a rotator overnight at 4° C. After 3 washes with RIPA buffer, immunoprecipitated complexes were eluted in sample buffer by boiling and subjected to immunoblot analysis. Immunoblots were visualized by chemiluminescence substrate (ThermoFisher) and imaged by a ChemiDoc XRSplus system (BioRad).
RNA Isolation, RT-qPCR, qPCR Array: Total RNA was isolated by RNeasy Plus Mini Kit(Qiagen). RNA(500 ng) were used in cDNA Synthesis (iScript, BioRad). Quantification of mRNA for genes involved in PPARγ signaling was performed using Mouse PrimePCR PPAR Array according to the manufacturer's protocol (BioRad). Real-time PCR was performed using an ABI7500 Real-Time PCR system (Life Technologies). Data analysis utilized the PrimePCR Analysis Software (BioRad). Conventional qPCR was performed using validated primers, and SsoAdvanced Universal SYBR Green Super mix (BioRad) or Taqman probes (Applied Biosystems) for heme synthesis enzymes.

DCs [6] = assay: PpIX flow cytometry analysis and hemin colorimetric assay; format: cell-based, Murine
Procedure: IDO enzymatic assay and Hemin assay: DC IDO enzyme activity was measured by the conversion of L-tryptophan to L-kynurenine in conditioned media by HPLC (Pallotta et al., 2011). Intracellular hemin was measured using a colorimetric assay kit (BioVision).
PpIX Analysis: DCs were terminally incubated in the presence of 1 mM δ-aminolevulinic acid (ALA) for 4 hrs. Intracellular PpIX was analyzed by flow cytometry as previously described (Hryhorenko et al., 1998).

Compound: O=CC[C@@H](O)[C@H](O)[C@H](O)CO [2-DG, 2-Deoxy-D-glucose, reference compound]
LPS-induced DC-mediated antigen-specific T cell proliferation [1]: suppresses LPS-induced DC-mediated antigen-specific T cell proliferation
DC-mediated Treg cell differentiation in vitro (CD4+FoxP3+ Treg cells): enhanced Treg cell differentiation in vitro

Compound: NC(=O)c1ncn([C@@H]2O[C@H](CO)[C@@H](O)[C@H]2O)c1N [AICAR, reference compound]
LPS-induced glycolytic surge (ECAR) (DCs [2]; DCs pre-treated): antagonize the glycolytic surge required for DC maturation

Compound: CC(C)(O)c1coc(S(=O)(=O)NC(=O)Nc2c3c(cc4c2CCC4)CCC3)c1 [MCC950]
efficacy of anti-PD-1 ab immunotherapy ([3]; NLRP3i added to anti-PD-1 ab): Enhances the Efficacy of Anti-PD-1 Ab Immunotherapy
Gr-MDSC recruitment (Ly6G+ Gr-MDSCs) ([3]; flow cytometry of resected melanomas): Suppresses Gr-MDSC Recruitment

Compound: Oc1nc(-c2ccc(C(F)(F)F)cc2)nc2c1CSCC2 [XAV939, reference compound]
glycolysis in DCs (ECAR) (DCs [2]): promoted glycolysis in DCs

Compound: CC[C@H]1/C=C/C=C/C[C@@H](C)[C@H](O)[C@@](C)(O)C(=O)[C@@H](C)[C@H](O)[C@@H](C)C(=O)[C@@H](C)[C@H](O)[C@@H](C)/C=C/C(=O)O[C@@H]2[C@H](C)[C@H](CC1)O[C@]1(CC[C@H](C)[C@H](C[C@@H](C)O)O1)[C@H]2C [oligomycin, Oligomycin]
DC-mediated Treg cell differentiation in vitro (CD4+FoxP3+ Treg cells): eliminated these Treg cell populations

Compound: CC(=O)CC(=O)CCC(=O)O [succinylacetone, 4,6-Dioxoheptanoic acid]
ability of Wnt5a-conditioned DCs to drive Treg cell differentiation in vitro (CD4+FoxP3+ Treg cells; Wnt5a plus inhibitor): significantly abrogated the ability of Wnt5a-stimulated DCs to promote Treg cell generation

expression of Alas1 and further enzymes of PpIX synthesis (DCs [5]; qRT-PCR): not
Compound: Wnt3a
glycolysis in DCs (ECAR) (DCs [2]): no changes
OXPHOS in DCs (OCR) (DCs [4]): no changes
PPAR-γ (Pparg) and CPT1A (Cpt1a) expression (DCs [5]; real-time qPCR and immunoblot, murine and human DCs for rWnt5a): failed to induce expression of both PPAR-γ and CPT1A in DCs
DC-mediated Treg cell differentiation in vitro (CD4+FoxP3+ Treg cells): failed to condition DCs to promote Treg cell differentiation
DC concentrations of PpIX and hemin (DCs [6]): failed to enhance PpIX synthesis in DCs
